Experiment [1] deals with Respiratory syncytial virus recombinant with luciferase (RSV-Luc5). Briefly: NHBE RSV-Luc5 384-well assay (EC50 RSVFLUC NHBE-384). It is filed as cell-based. The settings on record: human respiratory syncytial virus, 72 h, read-out: EC50 RSV FLUC NHBE 384 V2 (per Ex. U). The text has this:
Example U. NHBE RSV-Luc5 384-Well Assay (EC50 RSVFLUC NHBE-384)
Normal Human Bronchial Epithelial (NHBE) cells were purchased from Lonza (Walkersville, MD Cat #CC2540) and maintained in BEGM Bronchial Epithelial Cell Growth Medium BulletKit (Lonza CC-3170).
Cells were thawed, expanded, and were used for experiments at passage 2. Respiratory syncytial virus recombinant with luciferase (RSV-Luc5) (≥1×107 Infectious Units/ml (IU/ml) determined by TCID50) was purchased from Microbiologics (Saint Cloud, MN). Viral replication was determined in NHBE cells in the following manner.
Compounds are prepared in 100% DMSO in 384-well polypropylene plates (Greiner, Monroe, NC, Cat #784201) with 8 compounds per plate in grouped replicates of 4 at 10 serially diluted concentrations (1:3). The serially diluted compounds were transferred to low dead volume Echo plates (Labcyte, Sunnyvale, CA, Cat #LP-0200).
The test compounds were spotted to 384-well assay plates (Greiner, Monroe, NC, Cat #781091) at 200 nL per well. NHBE cells were harvested and suspended in BEGM Bronchial Epithelial Cell Growth Medium BulletKit and seeded to the pre-spotted assay plates at 5,000 cells per well in 30 μL. RSV-Luc5 virus was diluted in BEGM Bronchial Epithelial Cell Growth Medium BulletKit at 500,000 Infectious Units (IU) per mL and 10 μL per well was added to the assay plates containing cells and compounds, for an MOI of 1. The assay plates were incubated for 3 days at 37° C. and 5% CO2. At the end of incubation, One-Glo reagent (Promega, Madison, WI, Cat #E6120) was prepared. The assay plates and One-Glo reagent were equilibrated to room temperature for at least 15 minutes. 40 μL per well of One-Glo reagent was added and the plates were incubated at room temperature for 15 minutes before reading the luminescence signal on an En Vision multimode plate reader (Perkin Elmer, Waltham, MA). Remdesivir was used as positive control and DMSO was used as negative control. Values were normalized to the positive and negative controls (as 0% and 100% replication, respectively) and data was fitted using non-linear regression analysis by Gilead's dose response tool. The EC50 value for each compound was defined as the concentration reducing the viral replication by 50%.

The subject of experiment [2] is Human Rhinovirus 16 (HRV16). As to the kind of experiment: H1-HeLa HRV-CTG EC50, HRV16. It is filed as cell-based. The settings on record: Rhinovirus A, 96 h; H1-HeLa cells, HRV16, MOI 0.25, 4 days, Celltiter-Glo; read-out: EC50 H1-HeLa_HRV16_HRV-CTG 384-well Assay (per Ex. Z). An excerpt: Example Z: H1-HeLa HRV-CTG EC50
H1-Hela cell line (ATCC, Manassas, VA, Cat #CRL-1958) was maintained in Dulbecco's […] Essential Medium (DMEM) (Corning, New York, NY, Cat #15-018 CM) supplemented with 10% fetal bovine serum (FBS) (Hyclone, Logan, UT, Cat #SH30071-03), and 1× Penicillin-Streptomycin-L-Glutamine (Corning, New York, NY, Cat #30-009-CI). Cells were passaged 2 times per week to maintain sub-confluent densities and were used for experiments at passage 5-30. The Human Rhinovirus 1B (HRVIB) (ATCC, Manassas, VA, Cat #VR-1645), Human Rhinovirus 14 (HRV14) (ATCC, Manassas, VA, Cat #VR-284), and Human Rhinovirus 16 (HRV16) (ATCC, Manassas, VA, Cat #BR-283) was obtained through ATCC. Viral infection was monitored by determining viability of H1-HeLa cells as described below.
Test molecules are prepared in 100% DMSO in 384-well polypropylene plates (Greiner, Monroe, NC, Cat #784201) with 8 compounds per plate in grouped replicates of 4 at 10 serially diluted concentrations (1:3). […]
The test compounds were spotted to 384-well assay plates (Greiner, Monroe, NC, Cat #781091) at 200 nL per well using an Echo acoustic dispenser (Labcyte, Sunnyvale, CA). […] 40 μL per well of Celltiter-Glo reagent was added and the plates were incubated at room temperature for 15 minutes before reading the luminescence signal on an En Vision multimode plate reader (Perkin Elmer, Waltham, MA). […]

The structures appear in SMILES notation.

As to `N#Cc1cc(F)cc(CO[C@H](COCCCCCCCCCCCCCCCCCC(F)(F)F)COP(=O)(O)OC[C@@]2(C#N)O[C@@H](c3ccc4c(N)ncnn34)[C@H](O)[C@@H]2O)c1` [Compound 1, ((2R,3S,4R,5S)-5-(4-aminopyrrolo[2,1-f][1,2,4]triazin-7-yl)-2-cyano-3,4-dihydroxytetrahydrofuran-2-yl)methyl ((R)-2-((3-cyano-5-fluorobenzyl)oxy)-3-((18,18,18-trifluorooctadecyl)oxy)propyl) hydrogen phosphate], the EC50 amounted to 26 nM in experiment [1] and 34 nM in experiment [2].
On the same counts, the results for `N#Cc1cc(F)cc(CO[C@H](CCCCCCCCCCCCCCCCCCC(F)(F)F)COP(=O)(O)OC[C@@]2(C#N)O[C@@H](c3ccc4c(N)ncnn34)[C@H](O)[C@@H]2O)c1` [Compound 2, ((2R,3S,4R,5S)-5-(4-aminopyrrolo[2,1-f][1,2,4]triazin-7-yl)-2-cyano-3,4-dihydroxytetrahydrofuran-2-yl)methyl ((R)-2-((3-cyano-5-fluorobenzyl)oxy)-21,21,21-trifluorohenicosyl) hydrogen phosphate] are 30 nM and 91 nM.

The record behind these values is US20240309028A1, “PHOSPHOLIPID COMPOUNDS AND METHODS OF MAKING AND USING THE SAME” (Gilead Sciences, Inc., priority 2023, published 2024).
